# Assays:
# [1] = system: PLCγ2^wt; experiment: PLC activity assay 1 (A1), PLCγ2; type: biochemical, human; settings: assay using liposomes (A1)
# Procedure: The effect of nucleotide inhibition on PLC activity was measured using either a membrane-based assay with the fluorescent substrate (XY-69) incorporated into liposomes or using a small soluble substrate, Aldol 518 myo-inositol-1-phosphate (Aldol). Both methods utilised the same PLC assay buffer [20 mM Hepes-KOH, 70 mM KCl, 3 mM EGTA, 2.97 mM CaCl2, 2 mM TCEP and fatty acid-free bovine serum albumin (FAF-BSA; 50 μg/ml) (pH 7.5)]. Both assays were performed in low volume black 384-well plates (Greiner Bio-One), were composed of a final assay volume of 20 μl and were monitored in a Clariostar plate reader (BMG Labtech). The Aldol assay consisted of 4 μl of a serial dilution of ATP/ADP in assay buffer, 8 μl of PLC protein (concentration varied between PLC variants), and 8 μl of Aldol 518 myo-inositol-1-phosphate (final concentration in assay, 50 μM). […]
# The XY-69 assay contained 4 μl of a serial dilution of ATP/ADP in assay buffer, 4 μl of PLC protein (concentration varied between PLC variants), and 12 μl of XY69 liposomes (final concentration in assay 1.2 mg/ml). A CLARIOstar plate reader (BMG Labtech) was used to measure the production of the fluorescent product. […] The initial linear rate of product generation was calculated and converted to a % inhibition when compared with the rate of PLC activity in the absence of nucleotide. […]
# [2] = target: T1, hPLCγ1 (Homo sapiens, UniProt P19174, I813T); experiment: Hydrogen deuterium exchange mass spectrometry (HDX-MS), apo vs 10 µM ADP; type: binding
# T1 construct: specific activities of PLCγ1^wt and PLCγ2^wt full-length proteins; made in house; host or cells: Escherichia coli T7 Express lysY/Iq
# T1 sequence (P19174 1-1291 isoform P19174-2 I813T): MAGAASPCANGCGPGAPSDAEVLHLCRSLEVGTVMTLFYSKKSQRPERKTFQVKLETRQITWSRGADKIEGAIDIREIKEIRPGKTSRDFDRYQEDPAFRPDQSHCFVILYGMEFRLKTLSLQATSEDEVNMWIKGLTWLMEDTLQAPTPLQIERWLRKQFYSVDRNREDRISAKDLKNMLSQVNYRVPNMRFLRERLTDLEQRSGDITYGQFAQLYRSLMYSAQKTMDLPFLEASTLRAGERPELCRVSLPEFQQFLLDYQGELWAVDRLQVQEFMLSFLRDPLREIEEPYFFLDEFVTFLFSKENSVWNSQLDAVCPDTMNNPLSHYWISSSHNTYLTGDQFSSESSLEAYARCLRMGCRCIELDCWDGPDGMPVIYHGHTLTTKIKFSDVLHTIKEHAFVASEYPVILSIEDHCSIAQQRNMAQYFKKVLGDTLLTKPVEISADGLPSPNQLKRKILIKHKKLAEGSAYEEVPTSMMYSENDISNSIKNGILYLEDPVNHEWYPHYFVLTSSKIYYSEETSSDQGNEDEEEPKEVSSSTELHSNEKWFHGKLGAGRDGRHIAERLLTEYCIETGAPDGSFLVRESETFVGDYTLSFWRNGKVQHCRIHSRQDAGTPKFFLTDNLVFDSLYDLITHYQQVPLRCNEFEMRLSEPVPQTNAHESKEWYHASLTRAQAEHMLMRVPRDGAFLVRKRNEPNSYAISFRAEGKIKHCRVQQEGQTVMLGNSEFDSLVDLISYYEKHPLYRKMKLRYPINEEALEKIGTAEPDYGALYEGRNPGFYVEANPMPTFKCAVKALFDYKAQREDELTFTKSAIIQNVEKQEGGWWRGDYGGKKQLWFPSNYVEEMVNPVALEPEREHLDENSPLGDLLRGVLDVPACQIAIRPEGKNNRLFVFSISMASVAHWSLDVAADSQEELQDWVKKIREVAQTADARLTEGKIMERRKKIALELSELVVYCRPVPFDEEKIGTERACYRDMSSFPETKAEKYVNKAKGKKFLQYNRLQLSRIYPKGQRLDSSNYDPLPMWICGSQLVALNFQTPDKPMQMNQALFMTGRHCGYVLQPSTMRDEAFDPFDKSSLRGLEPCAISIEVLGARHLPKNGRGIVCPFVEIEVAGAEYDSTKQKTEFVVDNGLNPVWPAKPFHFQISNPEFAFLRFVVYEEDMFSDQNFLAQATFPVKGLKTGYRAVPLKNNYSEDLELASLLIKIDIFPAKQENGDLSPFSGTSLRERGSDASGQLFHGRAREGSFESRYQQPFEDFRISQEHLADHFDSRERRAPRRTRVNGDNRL
# Procedure: HDX reactions comparing apo hPLCγ1 to hPLCγ1 incubated with ADP were carried out in a 15 µl reaction volume containing 10 pmol of hPLCγ1 (0.67 µM) and 10 µM of ADP and 1.67% DMSO. The exchange reactions were initiated by the addition of 10.0 µl of D2O buffer (25 mM HEPES pH 7.5, 150 mM NaCl, 2 mM TCEP 92.25% D2O (V/V)) to 5.0 µl of protein (final D2O concentration of 61.5%). Reactions proceeded for 3 s at 0°C, 30 s, 300 s and 3000 s at 20°C before being quenched with ice cold acidic quench buffer, resulting in a final concentration of 0.6M guanidine HCl and 0.9% formic acid post quench. All conditions and time points were created and run in independent triplicate. Samples were flash frozen immediately after quenching and stored at -80°C until injected onto the ultra-performance liquid chromatography (UPLC) system for proteolytic cleavage, peptide separation and injection onto a QTOF for mass analysis, described below.
# Protein samples were rapidly thawed and injected onto an integrated fluidics system containing a HDx-3 PAL liquid handling robot and climate-controlled (2°C) chromatography system (Trajan), a Waters Acquity UPLC I-Class Series System, as well as an Impact HD QTOF Mass spectrometer (Bruker). The full details of the automated LC system were previously described. The samples were run over an immobilised pepsin column (Affipro; Enzymate Protein Pepsin Column, 2.1 mm X 20 mm) at 200 µl/min for 3 minutes at 2°C. […]
# Peptides were identified from the non-deuterated samples of p110α using data-dependent acquisition following tandem MS/MS experiments (0.5 s precursor scan from 150 to 2000 m/z; twelve 0.25 s fragment scans from 150 to 2000 m/z). MS/MS datasets were analysed using FragPipe v18.0 and peptide identification was carried out by using a false discovery-based approach using a database of purified proteins and known contaminants [[35–37]]. […]
# HD-Examiner Software (Trajan) was used to automatically calculate the level of deuterium incorporation into each peptide. […] Deuteration levels were calculated using the centroid of the experimental isotope clusters. […]
smiles,measurement,setting,value
Nc1ncnc2c1ncn2[C@@H]1O[C@H](COP(=O)(O)OP(=O)(O)O)[C@@H](O)[C@H]1O [ADP],IC50 of PLCγ2^wt relative to PLCγ1^wt (fold higher),[1],1.5- to 40 fold
same,difference in deuterium exchange (increase in exchange),[2]; amino acids 24–35 in the nPH domain,4.5–10%
same,difference in deuterium exchange (protection),"[2]; amino acids 330–347, 367–386, 863–882 and 957–973",4.5–10%
same,difference in deuterium exchange (protection),[2]; amino acids 481–495,> 10%

# From PMC12687421, “Characterisation of an allosteric site in PLCγ enzymes and implications for development of their specific inhibitors” (Biochemical Journal, 2025)
